Laboratory results: ChEMBL document CHEMBL6078669, “Stereoisomers of cannabidiols and their pharmacological activities - A potentially novel direction for cannabinoids” (Bioorg Med Chem, 2025)
pEC50, pIC50, pKi: −log10 of the molar value.

Legend:
Cannabinoid receptor 1 [1] = target: T1, Cannabinoid receptor 1 (Homo sapiens, UniProt P21554); assay: Binding affinity to CB1 receptor (unknown origin) assessed as inhibition constant
Cannabinoid receptor 2 [2] = target: T2, Cannabinoid receptor 2 (Homo sapiens, UniProt P34972); assay: Binding affinity to CB2 receptor (unknown origin) assessed as inhibition constant
[3] = target: T3, Transient receptor potential cation channel subfamily V member 1 (Homo sapiens, UniProt Q8NER1); assay: Agonist activity at human TRPV1 receptor expressed in HEK293 cells assessed as effect on [Ca2+]i preincubated with capsazepine for 30 mins followed by compound addition by Fluo-3 probe based fluorescence analysis; format: cell-based
[4] = target: T4, 5-hydroxytryptamine receptor 1A (Homo sapiens, UniProt P08908); assay: Agonist activity at 5-HT1A (unknown origin); format: functional
T4 sequence (P08908 whole entry): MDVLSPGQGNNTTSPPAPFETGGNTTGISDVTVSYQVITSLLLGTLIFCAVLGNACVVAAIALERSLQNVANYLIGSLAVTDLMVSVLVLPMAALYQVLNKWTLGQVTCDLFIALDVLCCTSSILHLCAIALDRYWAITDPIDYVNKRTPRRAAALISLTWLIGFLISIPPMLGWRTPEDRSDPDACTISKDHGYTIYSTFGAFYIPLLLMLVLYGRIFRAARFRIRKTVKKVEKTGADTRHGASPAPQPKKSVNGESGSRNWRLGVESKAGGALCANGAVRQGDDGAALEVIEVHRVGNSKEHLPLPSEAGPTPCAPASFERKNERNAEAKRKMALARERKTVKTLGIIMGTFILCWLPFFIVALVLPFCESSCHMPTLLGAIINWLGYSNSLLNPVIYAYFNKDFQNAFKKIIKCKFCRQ

[5] = Inhibition of [14C]-arachidonoylethanolamide uptake in rat RBL-2H3 cells assessed as increase in AEA level incubated for 5 mins by scintillation counting; format: functional, cell-based; settings: RBL-2H3, 5 min
[6] = target: T5, Fatty-acid amide hydrolase 1 (Mus musculus, UniProt O08914); assay: Inhibition of FAAH-mediated [14C]-AEA hydrolysis in mouse N18TG2 cell membrane incubated for 30 mins by scintillation counting; format: cell membranes
T5 sequence (O08914 whole entry): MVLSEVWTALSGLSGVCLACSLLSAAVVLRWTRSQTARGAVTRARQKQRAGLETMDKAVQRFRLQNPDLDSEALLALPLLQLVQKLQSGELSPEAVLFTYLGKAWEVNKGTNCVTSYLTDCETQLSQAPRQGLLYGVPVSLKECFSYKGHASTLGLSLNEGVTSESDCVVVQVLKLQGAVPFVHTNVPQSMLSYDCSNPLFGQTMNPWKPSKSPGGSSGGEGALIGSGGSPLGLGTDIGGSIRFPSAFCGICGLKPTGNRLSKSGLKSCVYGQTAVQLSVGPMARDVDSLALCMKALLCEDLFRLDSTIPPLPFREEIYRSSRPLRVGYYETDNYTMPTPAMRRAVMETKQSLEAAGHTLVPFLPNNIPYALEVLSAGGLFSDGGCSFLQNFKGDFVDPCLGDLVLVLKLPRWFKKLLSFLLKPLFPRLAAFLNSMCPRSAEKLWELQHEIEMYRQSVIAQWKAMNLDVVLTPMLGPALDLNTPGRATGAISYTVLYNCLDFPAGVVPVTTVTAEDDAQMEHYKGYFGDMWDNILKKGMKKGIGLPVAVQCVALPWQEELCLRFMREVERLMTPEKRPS

D(2) dopamine receptor [7] = target: T6, D(2) dopamine receptor (Homo sapiens, UniProt P14416); assay: Partial agonist activity at D2-low receptor (unknown origin)
[8] = target: Transient receptor potential cation channel subfamily M member 8 (Rattus norvegicus, UniProt Q8R455); assay: Antagonist activity at recombinant rat TRPM8 expressed in HEK293 cells assessed as inhibition of icillin-induced intracellular calcium level preincubated with compound for 5 mins followed by icillin addition by Fluo-4AM based calcium assay; format: cell-based
D(2) dopamine receptor [9] = target: T6, D(2) dopamine receptor; assay: Partial agonist activity at D2-high receptor (unknown origin)
[10] = target: G-protein coupled receptor 55 (Homo sapiens, UniProt Q9Y2T6); assay: Antagonist activity at GPR55 (unknown origin)
[11] = target: Sodium channel protein type 9 subunit alpha (Homo sapiens, UniProt Q15858); assay: Inhibition of human Nav1.7 expressed in HEK293 cells by whole cell electrophysiology recording; format: cell-based
[12] = target: Transient receptor potential cation channel subfamily A member 1 (Rattus norvegicus, UniProt Q6RI86); assay: Agonist activity at recombinant rat TRPA1 expressed in HEK293 cells assessed as increase in [Ca2+]i by Fluo-4AM based calcium assay; format: cell-based
[13] = target: T3, Transient receptor potential cation channel subfamily V member 1; assay: Agonist activity at recombinant human TRPV1 expressed in HEK293 cells assessed as increase in [Ca2+]i level by Fluo-4AM based calcium assay; format: cell-based
[14] = target: T7, Transient receptor potential cation channel subfamily V member 2 (Rattus norvegicus, UniProt Q9WUD2); assay: Agonist activity at recombinant rat TRPV2 expressed in HEK293 cells assessed as increase in [Ca2+]i by Fluo-4AM based calcium assay; format: cell-based
T7 sequence (Q9WUD2 whole entry): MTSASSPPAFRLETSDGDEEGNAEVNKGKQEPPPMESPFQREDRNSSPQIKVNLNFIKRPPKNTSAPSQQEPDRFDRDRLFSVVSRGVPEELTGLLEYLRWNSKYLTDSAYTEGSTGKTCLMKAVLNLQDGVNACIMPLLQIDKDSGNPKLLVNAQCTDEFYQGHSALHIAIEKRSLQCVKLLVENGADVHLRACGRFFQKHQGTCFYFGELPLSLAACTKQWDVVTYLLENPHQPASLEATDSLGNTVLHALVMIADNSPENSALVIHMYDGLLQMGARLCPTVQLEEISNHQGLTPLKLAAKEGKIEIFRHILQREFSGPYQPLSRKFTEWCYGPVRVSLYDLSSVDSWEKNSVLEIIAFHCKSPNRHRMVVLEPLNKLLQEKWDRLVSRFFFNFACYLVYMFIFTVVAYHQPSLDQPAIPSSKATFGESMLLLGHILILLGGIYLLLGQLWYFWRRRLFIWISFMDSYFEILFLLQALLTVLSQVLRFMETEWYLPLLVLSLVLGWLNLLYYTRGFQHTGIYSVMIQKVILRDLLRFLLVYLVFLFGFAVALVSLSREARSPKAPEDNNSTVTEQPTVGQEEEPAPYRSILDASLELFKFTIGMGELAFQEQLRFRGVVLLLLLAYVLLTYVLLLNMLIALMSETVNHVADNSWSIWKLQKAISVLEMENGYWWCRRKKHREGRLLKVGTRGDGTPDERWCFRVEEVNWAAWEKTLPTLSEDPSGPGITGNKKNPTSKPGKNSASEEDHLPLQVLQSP

[15] = target: T8, Equilibrative nucleoside transporter 1 (Homo sapiens, UniProt Q99808); assay: Inhibition of ENT-1 (unknown origin)
T8 sequence (Q99808 whole entry): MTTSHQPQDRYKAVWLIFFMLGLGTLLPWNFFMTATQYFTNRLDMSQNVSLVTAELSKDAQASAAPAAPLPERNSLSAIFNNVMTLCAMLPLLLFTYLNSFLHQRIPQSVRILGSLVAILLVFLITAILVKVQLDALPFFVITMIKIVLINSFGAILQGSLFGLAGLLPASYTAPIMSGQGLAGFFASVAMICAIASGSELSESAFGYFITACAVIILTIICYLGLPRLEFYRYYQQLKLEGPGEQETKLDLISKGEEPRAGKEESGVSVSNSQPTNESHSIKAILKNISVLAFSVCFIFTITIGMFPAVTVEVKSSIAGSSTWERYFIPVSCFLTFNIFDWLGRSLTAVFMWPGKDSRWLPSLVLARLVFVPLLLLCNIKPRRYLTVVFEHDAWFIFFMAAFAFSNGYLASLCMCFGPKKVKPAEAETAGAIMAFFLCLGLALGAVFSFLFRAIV

Cannabinoid receptor 1 [16] = target: T9, Cannabinoid receptor 1 (Rattus norvegicus, UniProt P20272); assay: Displacement of [3H]HU-243 from Sabra rat brain synaptosome CB1 receptor assessed as inhibition constant incubated for 90 mins; format: subcellular
Cannabinoid receptor 2 [17] = target: T2, Cannabinoid receptor 2; assay: Displacement of [3H]HU-243 from CB2 receptor (unknown origin) extracted from green monkey COS-7 cell membrane assessed as inhibition constant incubated for 90 mins; format: cell membranes
Cannabinoid receptor 1 [18] = target: T9, Cannabinoid receptor 1; assay: Displacement of [3H]HU-243 from Sabra rat brain synaptosome CB1 receptor assessed as inhibition constant; format: subcellular
[19] = Selectivity ratio of Ki for CB1 receptor (unknown origin) to Ki for CB2 receptor (unknown origin)
Homo sapiens = organism: Homo sapiens; assay: Selectivity ratio of Ki for human CB1 receptor extracted from HEK293 cell membrane to Ki for human CB2 receptor extracted from HEK293 cell membrane
Cannabinoid receptor 2 [20] = target: T2, Cannabinoid receptor 2; assay: Displacement of [3H]CP-55,940 from human CB2 receptor extracted from HEK293 cell membrane assessed as inhibition constant incubated for 90 mins by liquid scintillation spectrophotometric analysis; format: cell membranes
Cannabinoid receptor 1 [21] = target: T1, Cannabinoid receptor 1; assay: Displacement of [3H]CP-55,940 from human CB1 receptor extracted from HEK293 cell membrane assessed as inhibition constant incubated for 90 mins by liquid scintillation spectrophotometric analysis; format: cell membranes
[22] = Selectivity index, ratio of Ki for Sabra rat brain synaptosome CB1 receptor to Ki for CB2 receptor (unknown origin) extracted from green monkey COS-7 cells

T9 sequence (P20272 whole entry): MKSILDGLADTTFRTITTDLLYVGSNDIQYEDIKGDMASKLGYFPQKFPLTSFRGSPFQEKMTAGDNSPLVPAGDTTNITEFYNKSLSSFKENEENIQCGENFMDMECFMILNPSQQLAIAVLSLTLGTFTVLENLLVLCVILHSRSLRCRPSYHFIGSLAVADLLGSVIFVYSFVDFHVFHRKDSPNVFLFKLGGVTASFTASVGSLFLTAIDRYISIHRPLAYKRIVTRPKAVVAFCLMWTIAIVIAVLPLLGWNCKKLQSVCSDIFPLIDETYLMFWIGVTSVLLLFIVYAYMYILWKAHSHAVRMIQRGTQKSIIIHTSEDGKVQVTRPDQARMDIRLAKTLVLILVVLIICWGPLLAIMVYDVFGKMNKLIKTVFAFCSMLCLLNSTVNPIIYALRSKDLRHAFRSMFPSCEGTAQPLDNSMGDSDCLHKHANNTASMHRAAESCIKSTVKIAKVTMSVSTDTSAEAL
T2 sequence (P34972 whole entry): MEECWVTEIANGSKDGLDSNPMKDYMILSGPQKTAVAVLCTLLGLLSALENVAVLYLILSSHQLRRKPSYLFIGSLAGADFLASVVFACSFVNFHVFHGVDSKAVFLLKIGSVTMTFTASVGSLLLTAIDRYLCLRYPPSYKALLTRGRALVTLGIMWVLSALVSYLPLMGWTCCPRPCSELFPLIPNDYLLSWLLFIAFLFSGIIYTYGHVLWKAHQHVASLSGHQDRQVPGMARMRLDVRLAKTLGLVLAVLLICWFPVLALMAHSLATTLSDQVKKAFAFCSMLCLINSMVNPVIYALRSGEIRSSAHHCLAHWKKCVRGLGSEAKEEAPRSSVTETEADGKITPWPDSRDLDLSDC
T1 sequence (P21554 whole entry): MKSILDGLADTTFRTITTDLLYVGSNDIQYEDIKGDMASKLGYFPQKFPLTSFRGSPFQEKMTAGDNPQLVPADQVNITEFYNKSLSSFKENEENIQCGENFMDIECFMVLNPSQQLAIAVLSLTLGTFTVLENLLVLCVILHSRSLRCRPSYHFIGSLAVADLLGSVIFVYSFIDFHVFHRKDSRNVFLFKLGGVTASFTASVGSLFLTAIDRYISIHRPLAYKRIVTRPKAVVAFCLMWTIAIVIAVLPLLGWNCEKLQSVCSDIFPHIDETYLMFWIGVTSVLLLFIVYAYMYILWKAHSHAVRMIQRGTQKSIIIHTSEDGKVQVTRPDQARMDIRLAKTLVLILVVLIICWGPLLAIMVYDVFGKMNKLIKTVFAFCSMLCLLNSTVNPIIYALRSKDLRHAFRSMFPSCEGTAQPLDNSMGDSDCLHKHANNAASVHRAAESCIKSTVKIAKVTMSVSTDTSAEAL
T6 sequence (P14416 whole entry): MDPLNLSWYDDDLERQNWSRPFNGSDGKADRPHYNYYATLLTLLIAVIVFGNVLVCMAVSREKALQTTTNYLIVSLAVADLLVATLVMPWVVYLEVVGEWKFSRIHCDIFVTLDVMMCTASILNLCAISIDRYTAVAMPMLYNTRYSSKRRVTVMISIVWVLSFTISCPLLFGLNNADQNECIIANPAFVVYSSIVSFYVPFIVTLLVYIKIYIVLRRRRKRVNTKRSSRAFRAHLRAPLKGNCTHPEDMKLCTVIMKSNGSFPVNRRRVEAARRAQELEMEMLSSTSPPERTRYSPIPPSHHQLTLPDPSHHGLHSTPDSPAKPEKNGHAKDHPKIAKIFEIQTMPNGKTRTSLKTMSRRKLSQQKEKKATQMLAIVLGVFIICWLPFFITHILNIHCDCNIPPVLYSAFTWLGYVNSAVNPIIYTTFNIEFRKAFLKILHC
T3 sequence (Q8NER1 whole entry): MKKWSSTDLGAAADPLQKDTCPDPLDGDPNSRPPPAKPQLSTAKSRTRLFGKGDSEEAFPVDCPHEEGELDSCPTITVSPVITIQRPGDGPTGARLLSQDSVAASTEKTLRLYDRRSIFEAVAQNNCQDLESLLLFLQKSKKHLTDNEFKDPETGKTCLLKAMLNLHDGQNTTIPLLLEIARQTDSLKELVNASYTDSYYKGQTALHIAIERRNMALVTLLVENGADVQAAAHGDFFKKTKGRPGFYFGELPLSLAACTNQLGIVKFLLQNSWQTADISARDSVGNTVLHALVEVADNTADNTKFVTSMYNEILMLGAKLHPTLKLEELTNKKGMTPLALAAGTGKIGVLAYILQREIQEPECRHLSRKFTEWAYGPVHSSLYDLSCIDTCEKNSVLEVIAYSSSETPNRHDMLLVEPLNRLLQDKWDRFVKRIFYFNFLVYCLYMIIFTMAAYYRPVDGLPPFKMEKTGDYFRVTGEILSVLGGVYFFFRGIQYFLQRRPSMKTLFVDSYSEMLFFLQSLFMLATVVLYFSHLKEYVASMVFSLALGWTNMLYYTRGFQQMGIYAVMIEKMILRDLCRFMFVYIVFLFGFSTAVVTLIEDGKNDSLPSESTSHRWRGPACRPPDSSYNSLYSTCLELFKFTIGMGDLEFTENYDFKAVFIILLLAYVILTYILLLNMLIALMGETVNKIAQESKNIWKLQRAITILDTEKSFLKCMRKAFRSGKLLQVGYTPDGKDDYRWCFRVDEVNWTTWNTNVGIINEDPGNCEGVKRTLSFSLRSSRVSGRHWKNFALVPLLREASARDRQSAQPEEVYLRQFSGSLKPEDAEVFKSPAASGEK
Transient receptor potential cation channel subfamily M member 8, sequence (Q8R455 whole entry): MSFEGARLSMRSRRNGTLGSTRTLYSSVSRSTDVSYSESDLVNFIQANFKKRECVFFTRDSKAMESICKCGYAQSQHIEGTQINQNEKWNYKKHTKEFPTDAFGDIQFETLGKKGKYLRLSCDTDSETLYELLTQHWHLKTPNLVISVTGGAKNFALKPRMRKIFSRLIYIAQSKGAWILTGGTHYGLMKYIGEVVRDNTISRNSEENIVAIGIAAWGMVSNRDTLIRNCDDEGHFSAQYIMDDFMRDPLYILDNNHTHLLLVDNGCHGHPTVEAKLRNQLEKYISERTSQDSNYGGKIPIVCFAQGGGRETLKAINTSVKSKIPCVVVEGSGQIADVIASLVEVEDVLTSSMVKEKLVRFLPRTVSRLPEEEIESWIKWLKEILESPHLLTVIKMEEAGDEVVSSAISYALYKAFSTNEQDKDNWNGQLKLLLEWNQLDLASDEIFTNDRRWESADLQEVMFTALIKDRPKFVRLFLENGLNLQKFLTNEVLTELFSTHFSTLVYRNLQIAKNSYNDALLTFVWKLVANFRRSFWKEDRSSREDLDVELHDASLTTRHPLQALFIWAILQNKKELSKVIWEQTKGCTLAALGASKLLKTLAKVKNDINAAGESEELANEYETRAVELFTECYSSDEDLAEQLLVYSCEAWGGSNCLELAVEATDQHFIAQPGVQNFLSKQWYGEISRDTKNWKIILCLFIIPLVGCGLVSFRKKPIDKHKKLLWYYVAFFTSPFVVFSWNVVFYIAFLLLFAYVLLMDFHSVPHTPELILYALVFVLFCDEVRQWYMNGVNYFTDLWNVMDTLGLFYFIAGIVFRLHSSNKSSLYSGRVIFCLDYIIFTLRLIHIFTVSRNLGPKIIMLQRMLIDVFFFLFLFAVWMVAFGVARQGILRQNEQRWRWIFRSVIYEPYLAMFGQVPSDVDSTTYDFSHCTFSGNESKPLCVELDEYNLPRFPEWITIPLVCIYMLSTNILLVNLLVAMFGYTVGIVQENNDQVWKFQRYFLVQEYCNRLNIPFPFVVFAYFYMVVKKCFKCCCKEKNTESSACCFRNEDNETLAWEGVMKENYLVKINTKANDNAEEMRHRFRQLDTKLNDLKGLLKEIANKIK
Transient receptor potential cation channel subfamily A member 1, sequence (Q6RI86 whole entry): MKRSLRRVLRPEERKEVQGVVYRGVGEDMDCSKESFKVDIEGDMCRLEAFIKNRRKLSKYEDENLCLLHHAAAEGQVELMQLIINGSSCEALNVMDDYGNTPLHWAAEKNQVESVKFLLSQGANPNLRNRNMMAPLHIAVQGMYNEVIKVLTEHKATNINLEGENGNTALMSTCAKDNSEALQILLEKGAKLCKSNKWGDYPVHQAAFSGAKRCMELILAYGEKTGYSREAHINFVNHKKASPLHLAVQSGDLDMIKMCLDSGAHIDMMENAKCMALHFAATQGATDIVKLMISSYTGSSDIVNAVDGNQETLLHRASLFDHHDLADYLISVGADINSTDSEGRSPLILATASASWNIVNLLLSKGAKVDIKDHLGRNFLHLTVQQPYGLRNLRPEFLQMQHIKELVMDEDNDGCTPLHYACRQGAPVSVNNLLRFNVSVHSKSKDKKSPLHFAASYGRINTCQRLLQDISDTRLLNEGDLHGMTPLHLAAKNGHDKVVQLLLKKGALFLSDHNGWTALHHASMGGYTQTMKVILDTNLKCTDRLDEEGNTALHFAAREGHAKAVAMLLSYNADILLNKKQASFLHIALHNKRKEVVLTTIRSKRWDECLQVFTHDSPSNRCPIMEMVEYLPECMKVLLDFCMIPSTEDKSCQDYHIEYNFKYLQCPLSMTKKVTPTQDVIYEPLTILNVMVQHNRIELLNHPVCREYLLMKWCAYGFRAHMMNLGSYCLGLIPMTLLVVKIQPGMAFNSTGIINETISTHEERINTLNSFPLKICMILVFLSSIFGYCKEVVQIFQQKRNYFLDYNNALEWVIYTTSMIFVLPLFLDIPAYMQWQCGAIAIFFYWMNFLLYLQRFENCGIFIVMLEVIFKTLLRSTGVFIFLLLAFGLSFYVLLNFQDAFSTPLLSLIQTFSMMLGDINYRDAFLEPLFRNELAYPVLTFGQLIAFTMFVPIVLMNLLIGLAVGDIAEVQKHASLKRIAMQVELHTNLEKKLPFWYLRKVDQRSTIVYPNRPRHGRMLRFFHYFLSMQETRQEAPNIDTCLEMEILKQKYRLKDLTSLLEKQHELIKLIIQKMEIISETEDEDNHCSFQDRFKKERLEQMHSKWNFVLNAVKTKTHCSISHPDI

SMILES: CCCCCCC(C)(C)c1cc(OC)c([C@@H]2C=C(CO)[C@@H]3C[C@H]2C3(C)C)c(OC)c1 [ONTERNABEZ]
- pKi (Cannabinoid receptor 1 [1]): < 6.00

SMILES: COc1cc(C(C)(C)CCCCCCN=C=S)cc(OC)c1[C@@H]1C=C(CO)[C@@H]2C[C@H]1C2(C)C
- pKi (Cannabinoid receptor 1 [1]): < 6.00
- pKi (Cannabinoid receptor 2 [2]): 6.92

SMILES: C=C(C)[C@@H]1CCC(C)=C[C@H]1c1c(O)cc(CCCCC)cc1O [CANNABIDIOL]
- pEC50 [3]: 5.49
- pEC50 [4]: 4.80
- pIC50 [5]: 4.66
- pIC50 [6]: 4.56
- pKi (D(2) dopamine receptor [7]): 5.55
- pIC50 [8]: 7.22
- pKi (D(2) dopamine receptor [9]): 10.18
- pIC50 [10]: 6.35
- pIC50 [11]: 5.74
- pEC50 [12]: 6.96
- pEC50 [13]: 6.00
- pEC50 [14]: 5.90
- pKi [15]: 6.60

SMILES: C=C(C)[C@H]1CCC(C)=C[C@@H]1c1c(O)cc(C(C)(C)CCCCCC)cc1O
- pIC50 [5]: 5.00
- pKi (Cannabinoid receptor 1 [16]): 7.76
- pKi (Cannabinoid receptor 2 [17]): 6.68

SMILES: C=C(C)[C@@H]1CCC(CO)=C[C@H]1c1c(O)cc(C(C)(C)CCCCCC)cc1O
- pIC50 [5]: 4.90
- pKi (Cannabinoid receptor 1 [16]): ≤ 5.40
- pKi (Cannabinoid receptor 2 [17]): 6.17

SMILES: C=C(C)[C@H]1CCC(C)=C[C@@H]1c1c(OC)cc(C(C)(C)CCCCCC)cc1OC
- pKi (Cannabinoid receptor 1 [16]): < 6.00
- pKi (Cannabinoid receptor 2 [17]): < 6.00

SMILES: CCCCCCC(C)(C)c1cc(OC)c([C@H]2C=C(CO)[C@H]3C[C@@H]2C3(C)C)c(OC)c1
- pKi (Cannabinoid receptor 1 [18]): < 5.00

SMILES: C=C(C)[C@H]1CCC(C(=O)O)=C[C@@H]1c1c(O)cc(CCCCC)cc1O
- pKi (Cannabinoid receptor 1 [1]): 7.88
- pKi (Cannabinoid receptor 2 [2]): 6.50
- Ratio Ki [19]: 0.04

SMILES: C=C(C)[C@H]1CCC(C)=C[C@@H]1c1c(O)cc(CCC)c(C(=O)OC)c1O
- Ratio Ki (Homo sapiens): 12.3
- pKi (Cannabinoid receptor 2 [20]): 7.55
- pKi (Cannabinoid receptor 1 [21]): 6.46

SMILES: C=C(C)[C@H]1CCC(CO)=C[C@@H]1c1c(O)cc(C(C)(C)CCCCCC)cc1O
- pIC50 [5]: 5.15
- pKi (Cannabinoid receptor 1 [16]): 8.60
- pKi (Cannabinoid receptor 2 [17]): 7.36

SMILES: C=C(C)[C@H]1CCC(CO)=C[C@@H]1c1c(O)cc(CCCCC)cc1O
- pKi (Cannabinoid receptor 1 [16]): 8.28
- Ratio Ki [22]: 0.05
- pKi (Cannabinoid receptor 2 [17]): 7.00

SMILES: C=C(C)[C@@H]1CCC(C)=C[C@H]1c1c(O)cc(CCCCC)c(C(=O)OC)c1O
- Ratio Ki (Homo sapiens): 3.9
- pKi (Cannabinoid receptor 2 [20]): 9.10
- pKi (Cannabinoid receptor 1 [21]): 8.51

SMILES: C=C(C)[C@@H]1CCC(C)=C[C@H]1c1c(O)cc(CCC)cc1O [CANNABIDIVARIN]
- pKi (Cannabinoid receptor 1 [1]): < 6.00
